Results published in patent US12552772B2, “2-pyrazole anilines and related analogs for inhibiting YAP/TAZ-TEAD” (KATHOLIEKE UNIVERSITEIT LEUVEN, priority 2021, dated 2026).
pEC50: −log10 of the molar value.

System: YAP/TAZ-TEAD transcription
Assay: Reporter gene assay for measuring the inhibition of YAP/TAZ-TEAD transcription (TEAD-responsive element luciferase reporter in Hek293T cells)
Format: cell-based
Conditions: Homo sapiens, HEK-293T, 24 hours incubation
Method: Hek293T cells are cultured in DMEM supplemented with 10% fetal bovine serum, Sodium pyruvate, Sodium bicarbonate, L-glutamine. The cells are harvested and transiently transfected with TEAD-responsive element luciferase reporter. Transfected cells are plated in 384-wells plate containing pre-diluted compounds. After 24 hours incubation at 37° C./5% CO2, assay plates were cooled down to RT and levelled to an equal volume per well, prior to the addition of 25 uL luciferase substrate SteadyLite (Perkin Elmer)/well. The plate was shaken for 10 min at 600 rpm, centrifuged for 1 min at 500 rpm and measured with an Envision reader (PerkinElmer). The amount of relative light units produced by the TEAD reporter is used to calculated percent of inhibition.
The percent of reporter inhibition was calculated in the presence of a positive control inhibitor (100% inhibition) versus a condition with the presence of the vehicle basal activity of the reporter (0% inhibition). The ability of a test compound to inhibit this activity was determined as: Percentage inhibition=[1−((RLU determined in the presence of vehicle−RLU determined for sample with test compound present) divided by (RLU determined in the presence of vehicle−RLU determined for sample with positive control inhibitor))]*100
The activities of the example compounds tested are depicted in the table below. The activity ranges A, B and C refer to EC50 values in the reporter gene assay as described as follows: “A”: EC50<1 μM; “B”: 1 μM s EC50≤20 μM and “C”: EC50>20 μM, NT=not tested.

Compound | pEC50
C=CC(=O)NCc1cnc(-c2ccc(F)cc2)cc1-c1cnn(C(F)F)c1 [Cpd. No. 224, N-((4-(1-(difluoromethyl)-1H-pyrazol-4-yl)-6-(4-fluorophenyl)pyridin-3-yl)methyl)acrylamide] | 4.70 to 6.00
C=CC(=O)NCc1cnc(-c2ccc(F)cc2)cc1-c1cn(C(F)F)nn1 [Cpd. No. 229, N-((4-(1-(difluoromethyl)-1H-1,2,3-triazol-4-yl)-6-(4-fluorophenyl)pyridin-3-yl)methyl)acrylamide] | > 6.00
C=CC(=O)NCc1c(-c2ccn(C)n2)cc(-c2ccc(F)cc2)[nH]c1=O [Cpd. No. 233, N-((6-(4-fluorophenyl)-4-(1-methyl-1H-pyrazol-3-yl)-2-oxo-1,2-dihydropyridin-3-yl)methyl)acrylamide] | < 4.70
C=CC(=O)NCc1[nH]c(=O)c(-c2ccc(F)cc2)cc1-c1ccn(C)n1 [Cpd. No. 234, N-((5-(4-fluorophenyl)-3-(1-methyl-1H-pyrazol-3-yl)-6-oxo-1,6-dihydropyridin-2-yl)methyl)acrylamide] | > 6.00
C=CC(=O)NCc1cc(=O)n(-c2ccc(F)cc2)cc1-c1ccn(C)n1 [Cpd. No. 235, N-((1-(4-fluorophenyl)-5-(1-methyl-1H-pyrazol-3-yl)-2-oxo-1,2-dihydropyridin-4-yl)methyl)acrylamide] | < 4.70
C=CC(=O)NCc1cnc(-c2ccc(F)cc2)cc1-n1cccn1 [Cpd. No. 239, N-((6-(4-fluorophenyl)-4-(1H-pyrazol-1-yl)pyridin-3-yl)methyl)acrylamide] | > 6.00
C=CC(=O)NC1(c2ccc(-c3ccc(F)cc3)cc2-c2ccn(C)n2)CC1 [Cpd. No. 256, N-(1-(4′-fluoro-3-(1-methyl-1H-pyrazol-3-yl)-[1,1′-biphenyl]-4-yl)cyclopropyl)acrylamide] | > 6.00
C=CC(=O)NC1CC1c1ccc(-c2ccccc2)cc1-c1ccn(C)n1 (centres unmarked) [Cpd. No. 257, N-(2-(3-(1-methyl-1H-pyrazol-3-yl)-[1,1′-biphenyl]-4-yl)cyclopropyl)acrylamide] | > 6.00
C=CC(=O)N1CCC(c2cc(-c3ccc(F)cc3)nc(-c3ccn(C(F)F)n3)c2)C1 (centres unmarked) [Cpd. No. 264, 1-(3-(2-(1-(difluoromethyl)-1H-pyrazol-3-yl)-6-(4-fluorophenyl)pyridin-4-yl)pyrrolidin-1-yl)prop-2-en-1-one] | > 6.00
C=CC(=O)N1CCC(c2cc(-c3ccc(F)cc3)cc(-c3ccn(C(F)F)n3)n2)C1 (centres unmarked) [Cpd. No. 265, 1-(3-(6-(1-(difluoromethyl)-1H-pyrazol-3-yl)-4-(4-fluorophenyl)pyridin-2-yl)pyrrolidin-1-yl)prop-2-en-1-one] | > 6.00
O=C(O)c1cncc(-c2cccc(-c3ccn(Cc4ccccc4)n3)c2)c1 [compound 001, 5-(3-(1-benzyl-1H-pyrazol-3-yl)phenyl)nicotinic acid] | < 4.70
NC(=O)c1cncc(-c2cccc(-c3ccn(Cc4ccccc4)n3)c2)c1 [compound 002, 5-(3-(1-benzyl-1H-pyrazol-3-yl)phenyl)nicotinamide] | > 6.00
Nc1cncc(-c2cccc(-c3ccn(Cc4ccccc4)n3)c2)c1 [compound 003, 5-(3-(1-benzyl-1H-pyrazol-3-yl)phenyl)pyridin-3-amine] | 4.70 to 6.00
N#Cc1cncc(-c2cccc(-c3ccn(Cc4ccccc4)n3)c2)c1 [compound 005, 5-(3-(1-benzyl-1H-pyrazol-3-yl)phenyl)nicotinonitrile] | 4.70 to 6.00
CCC(=O)Nc1cncc(-c2cccc(-c3ccn(Cc4ccccc4)n3)c2)c1 [compound 006, N-(5-(3-(1-benzyl-1H-pyrazol-3-yl)phenyl)pyridin-3-yl)propionamide] | 4.70 to 6.00
CC(=O)Nc1cncc(-c2cccc(-c3ccn(Cc4ccccc4)n3)c2)c1 [compound 007, N-(5-(3-(1-benzyl-1H-pyrazol-3-yl)phenyl)pyridin-3-yl)acetamide] | > 6.00
C=CC(=O)Nc1ccccc1-c1cccc(-c2ccn(Cc3ccccc3)n2)c1 [compound 008, N-(3′-(1-benzyl-1H-pyrazol-3-yl)-[1,1′-biphenyl]-2-yl)acrylamide] | 4.70 to 6.00
C=CC(=O)Nc1cc(-c2cccc(-c3ccn(Cc4ccccc4)n3)c2)ccn1 [compound 009, N-(4-(3-(1-benzyl-1H-pyrazol-3-yl)phenyl)pyridin-2-yl)acrylamide] | > 6.00
C=CC(=O)Nc1ccc(-c2cccc(-c3ccn(Cc4ccccc4)n3)c2)cn1 [compound 010, N-(5-(3-(1-benzyl-1H-pyrazol-3-yl)phenyl)pyridin-2-yl)acrylamide] | 4.70 to 6.00
C=CC(=O)Nc1cncc(-c2cccc(-c3ccn(Cc4ccc(C(F)(F)F)cc4)n3)c2)c1 [compound 011, N-(5-(3-(1-(4-(trifluoromethyl)benzyl)-1H-pyrazol-3-yl)phenyl)pyridin-3-yl)acrylamide] | 4.70 to 6.00
C=CC(=O)Nc1cncc(-c2cccc(-c3ccn(Cc4cccc(C(F)(F)F)c4)n3)c2)c1 [compound 012, N-(5-(3-(1-(3-(trifluoromethyl)benzyl)-1H-pyrazol-3-yl)phenyl)pyridin-3-yl)acrylamide] | 4.70 to 6.00

Compound | pEC50
C=CC(=O)Nc1cncc(-c2cccc(-c3ccn(C)n3)c2)c1 [compound 013, N-(5-(3-(1-methyl-1H-pyrazol-3-yl)phenyl)pyridin-3-yl)acrylamide] | 4.70 to 6.00
c1ccc(-c2cccc(-c3ccn(Cc4cccnc4)n3)c2)cc1 [compound 014, 3-((3-([1,1′-biphenyl]-3-yl)-1H-pyrazol-1-yl)methyl)pyridine] | 4.70 to 6.00
c1ccc(-c2cccc(-c3ccnn3Cc3cccnc3)c2)cc1 [compound 015, 3-((5-([1,1′-biphenyl]-3-yl)-1H-pyrazol-1-yl)methyl)pyridine] | < 4.70
c1ccc(Cn2ccc(-c3cccc(-c4cncnc4)c3)n2)cc1 [compound 016, 5-(3-(1-benzyl-1H-pyrazol-3-yl)phenyl)pyrimidine] | 4.70 to 6.00
c1ccc(Cn2nccc2-c2cccc(-c3cncnc3)c2)cc1 [compound 017, 5-(3-(1-benzyl-1H-pyrazol-5-yl)phenyl)pyrimidine] | 4.70 to 6.00
Fc1cccc(Cn2ccc(-c3cccc(-c4ccccc4)c3)n2)c1 [compound 018, 3-([1,1′-biphenyl]-3-yl)-1-(3-fluorobenzyl)-1H-pyrazole] | 4.70 to 6.00
COc1cccc(Cn2ccc(-c3cccc(-c4ccccc4)c3)n2)c1 [compound 019, 3-([1,1′-biphenyl]-3-yl)-1-(3-methoxybenzyl)-1H-pyrazole] | 4.70 to 6.00
N#Cc1cccc(Cn2ccc(-c3cccc(-c4ccccc4)c3)n2)c1 [compound 020, 3-((3-([1,1′-biphenyl]-3-yl)-1H-pyrazol-1-yl)methyl)benzonitrile] | 4.70 to 6.00
c1ccc(-c2cccc(-c3ccn(Cc4ccccn4)n3)c2)cc1 [compound 021, 2-((3-([1,1′-biphenyl]-3-yl)-1H-pyrazol-1-yl)methyl)pyridine] | 4.70 to 6.00
c1ccc(-c2cccc(-c3ccn(Cc4ccncc4)n3)c2)cc1 [compound 022, 4-((3-([1,1′-biphenyl]-3-yl)-1H-pyrazol-1-yl)methyl)pyridine] | 4.70 to 6.00
c1ccc(-c2cccc(-c3ccn(CCc4cccnc4)n3)c2)cc1 [compound 023] | 4.70 to 6.00
Cn1ccc(Cn2ccc(-c3cccc(-c4ccccc4)c3)n2)cc1=O [compound 024, 4-((3-([1,1′-biphenyl]-3-yl)-1H-pyrazol-1-yl)methyl)-1-methylpyridin-2(1H)-one] | 4.70 to 6.00
c1ccc(-c2cccc(-c3ccn(CCN4CCOCC4)n3)c2)cc1 [compound 025, 4-(2-(3-([1,1′-biphenyl]-3-yl)-1H-pyrazol-1-yl)ethyl)morpholine] | 4.70 to 6.00
c1ccc(-c2cccc(-c3ccn(CC4CCOCC4)n3)c2)cc1 [compound 026, 3-([1,1′-biphenyl]-3-yl)-1-((tetrahydro-2H-pyran-4-yl)methyl)-1H-pyrazole] | < 4.70
N#Cc1ccc(Cn2ccc(-c3cccc(-c4ccccc4)c3)n2)cn1 [compound 027, 5-((3-([1,1′-biphenyl]-3-yl)-1H-pyrazol-1-yl)methyl)picolinonitrile] | 4.70 to 6.00
NC(=O)c1ccc(Cn2ccc(-c3cccc(-c4ccccc4)c3)n2)cn1 [compound 028, 5-((3-([1,1′-biphenyl]-3-yl)-1H-pyrazol-1-yl)methyl)picolinamide] | 4.70 to 6.00
NCc1ccc(Cn2ccc(-c3cccc(-c4ccccc4)c3)n2)cn1 [compound 029, (5-((3-([1,1′-biphenyl]-3-yl)-1H-pyrazol-1-yl)methyl)pyridin-2-yl)methanamine] | 4.70 to 6.00
c1ccc(-c2cccc(-c3ccn(CC4CCNCC4)n3)c2)cc1 [compound 030, 4-((3-([1,1′-biphenyl]-3-yl)-1H-pyrazol-1-yl)methyl)piperidine] | 4.70 to 6.00
CC(=O)N1CCC(Cn2ccc(-c3cccc(-c4ccccc4)c3)n2)CC1 [compound 031, 1-(4-((3-([1,1′-biphenyl]-3-yl)-1H-pyrazol-1-yl)methyl)piperidin-1-yl)ethan-1-one] | 4.70 to 6.00
CN1CCC(Cn2ccc(-c3cccc(-c4ccccc4)c3)n2)CC1 [compound 032, 4-((3-([1,1′-biphenyl]-3-yl)-1H-pyrazol-1-yl)methyl)-1-methylpiperidine] | 4.70 to 6.00
